{
  "source": "paper PMC11506481",
  "about": "“Influence of Harvesting Stage on Phytochemical Composition, Antioxidant, and Antidiabetic Activity of Immature Ceratonia siliqua L. Pulp from Béni Mellal-Khénifra Region, Morocco: In Silico, In Vitro, and In Vivo Approaches” (Current Issues in Molecular Biology, 2024)",
  "target": "T1, intestinal α-glucosidase",
  "T1 construct": "gene MAL12; human 5NN8 only used for docking",
  "experiment": "sucrose hydrolysis, GOD-POD glucose read-out at […] nm",
  "format": "biochemical",
  "settings": "sucrose as substrate; phosphate buffer pH 7.5; 37 °C",
  "data": [
    {"smiles": "C[C@H]1O[C@H](O[C@H]2[C@H](O)[C@@H](O)[C@@H](O[C@H]3[C@H](O)[C@@H](O)C(O)O[C@@H]3CO)O[C@@H]2CO)[C@H](O)[C@@H](O)[C@@H]1N[C@H]1C=C(CO)[C@@H](O)[C@H](O)[C@H]1O", "note": "(stereo partly shown) [acarbose]", "values": [
      {"measurement": "IC50", "result": "0.089 ± 0.004", "unit": "mg/L"}
    ]}
  ]
}
